# Experimental data as given in article PMC7970697, “Inhibition and Induction by Poziotinib of Different Rat Cytochrome P450 Enzymes In Vivo and in an In Vitro Cocktail Method” (Frontiers in Pharmacology, 2021).
# pIC50: −log10 of the molar value. Where two headings read alike, the source gives them in different places.
# Experiments:
# cyp1a2 = experiment: Effect of poziotinib on cyp1a2 activity in rats (phenacetin pharmacokinetics); assay type: in vivo, Sprague-Dawley rats; conditions: poziotinib 5 mg/kg oral 7 days, phenacetin probe
# Protocol: (§1) Twelve male Sprague-Dawley rats (230 ± 20 g) were randomly divided into treated and control groups, with 6 in each group. […] The supernatant was mixed with 200 μL of acetonitrile and 20 μL of 0.5 μg/ml diazepam (IS), vortexed for 30 s, centrifuged at 13,000 rpm for 5 min, and the supernatant was injected into the UPLC-MS/MS system for analysis.
# (§2) Pharmacokinetic parameters were calculated using DAS software (Version 3.2.8). SPSS software (version 16.0; SPSS Inc., Chicago, IL, United States) was used to analyze the significance of differences between the main pharmacokinetic parameters. p < 0.05 was considered statistically significant. GraphPad (version 8.0; GraphPad Software Inc., San Diego, CA, United States) was used to calculate IC50 and plot the plasma concentration-time curves and inhibition plots (type of inhibition, time- and concentration-dependence).
# cyp2b1 [1] = target: T1, cyp2b1 (Rattus norvegicus, UniProt P00176); experiment: Effect of poziotinib on cyp2b1 activity in rats (bupropion pharmacokinetics); assay type: in vivo, Sprague-Dawley rats; design: from tissue; host or cells: living male Sprague-Dawley rats (whole animal); conditions: poziotinib 5 mg/kg oral 7 days, bupropion probe
# T1 sequence (P00176 1-491): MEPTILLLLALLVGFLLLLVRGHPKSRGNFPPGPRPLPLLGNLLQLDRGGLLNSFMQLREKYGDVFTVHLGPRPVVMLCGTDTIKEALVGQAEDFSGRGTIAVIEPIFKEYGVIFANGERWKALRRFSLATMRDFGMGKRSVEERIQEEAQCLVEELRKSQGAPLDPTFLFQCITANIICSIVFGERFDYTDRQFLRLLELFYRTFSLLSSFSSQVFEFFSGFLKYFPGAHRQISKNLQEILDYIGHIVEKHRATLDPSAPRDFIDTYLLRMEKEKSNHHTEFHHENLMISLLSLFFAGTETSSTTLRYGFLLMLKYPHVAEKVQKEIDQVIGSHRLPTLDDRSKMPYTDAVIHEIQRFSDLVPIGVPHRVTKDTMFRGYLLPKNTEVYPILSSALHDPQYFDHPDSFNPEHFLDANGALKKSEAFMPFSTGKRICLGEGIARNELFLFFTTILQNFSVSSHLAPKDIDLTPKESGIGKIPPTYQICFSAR
# Protocol: as §1, §2
# CYP3A4 and CYP2D6 = system: CYP3A4 and CYP2D6; design: method as in Kim et al., 2013; conditions: LC-MS/MS; ref Kim et al., 2013; cited from earlier work
# cyp2b1 [2] = target: T1, cyp2b1; experiment: Time- and concentration-dependent inhibition in RLMs, bupropion; assay type: in vitro ADME; design: from tissue; host or cells: rat liver microsomes, prepared in-house
# Protocol: A mixture containing 1 mg/ml of RLMs, different concentrations of poziotinib (0, 2, 4, 8 and16 μM for 2b1; 0, 5, 10 20 and 40 μM for 2c11), and NADPH was pre-incubated at 37°C for 0, 5, 10, and 20 min; Methanol instead of poziotinib was performed as control. Then 20 μM bupropion or 100 μM tolbutamide was added and incubated at 37°C for 30 min. The reactions were carried out and analyzed in triplicate as described in 2.3.
# cyp2c11 [3] = target: T2, cyp2c11 (Rattus norvegicus, UniProt P08683); experiment: Cocktail method IC50 in rat liver microsomes, tolbutamide probe; assay type: in vitro ADME; design: from tissue; host or cells: rat liver microsomes, prepared in-house
# T2 sequence (P08683 1-500): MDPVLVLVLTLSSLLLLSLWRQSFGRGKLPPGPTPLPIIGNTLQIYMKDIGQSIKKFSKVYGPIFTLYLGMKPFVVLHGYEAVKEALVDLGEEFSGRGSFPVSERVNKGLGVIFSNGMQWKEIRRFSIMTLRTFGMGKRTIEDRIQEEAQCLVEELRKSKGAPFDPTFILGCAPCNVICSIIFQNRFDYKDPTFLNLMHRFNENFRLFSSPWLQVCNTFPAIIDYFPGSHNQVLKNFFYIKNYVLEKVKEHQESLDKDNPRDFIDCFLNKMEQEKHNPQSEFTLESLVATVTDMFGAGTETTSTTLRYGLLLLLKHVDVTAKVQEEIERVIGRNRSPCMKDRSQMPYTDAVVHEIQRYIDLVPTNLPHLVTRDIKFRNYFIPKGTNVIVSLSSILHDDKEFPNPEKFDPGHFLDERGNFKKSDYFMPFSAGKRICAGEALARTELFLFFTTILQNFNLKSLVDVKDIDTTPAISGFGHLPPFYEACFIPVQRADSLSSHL
# Protocol: The cocktail method was employed to analyze the effects of poziotinib on cyp1a2, cyp2b1, cyp2c11, cyp2d1, cyp2e1, and cyp3a1/2. […] Then half-maximal inhibitory concentration (IC50) of poziotinib was determined with all of the CYPs. […]. To this cocktail, 1 mg/ml of RLMs, 100 mM potassium phosphate buffer (pH 7.4), poziotinib (1, 2.5, 5, 10, 25, 50, or 100 μM) were added to obtain a final volume of 200 μL. After pre-incubation of this mixture for 5 min in a shaking water bath at 37°C, 1 mM NADPH was added to start the reaction. The reactions were allowed to proceed for 30 min, after which 200 μL of acetonitrile and 20 μL of IS were added to terminate the reactions. The mixtures were vortexed for 30 s and centrifuged again at 13,000 rpm for 5 min.
# cyp2d1 = target: T3, cyp2d1 (Rattus norvegicus, UniProt P10633); experiment: Effect of poziotinib on cyp2d1 activity in rats (dextromethorphan pharmacokinetics); assay type: in vivo, Sprague-Dawley rats; design: from tissue; host or cells: living male Sprague-Dawley rats (whole animal); conditions: poziotinib 5 mg/kg oral 7 days, dextromethorphan probe
# T3 sequence (P10633 1-504): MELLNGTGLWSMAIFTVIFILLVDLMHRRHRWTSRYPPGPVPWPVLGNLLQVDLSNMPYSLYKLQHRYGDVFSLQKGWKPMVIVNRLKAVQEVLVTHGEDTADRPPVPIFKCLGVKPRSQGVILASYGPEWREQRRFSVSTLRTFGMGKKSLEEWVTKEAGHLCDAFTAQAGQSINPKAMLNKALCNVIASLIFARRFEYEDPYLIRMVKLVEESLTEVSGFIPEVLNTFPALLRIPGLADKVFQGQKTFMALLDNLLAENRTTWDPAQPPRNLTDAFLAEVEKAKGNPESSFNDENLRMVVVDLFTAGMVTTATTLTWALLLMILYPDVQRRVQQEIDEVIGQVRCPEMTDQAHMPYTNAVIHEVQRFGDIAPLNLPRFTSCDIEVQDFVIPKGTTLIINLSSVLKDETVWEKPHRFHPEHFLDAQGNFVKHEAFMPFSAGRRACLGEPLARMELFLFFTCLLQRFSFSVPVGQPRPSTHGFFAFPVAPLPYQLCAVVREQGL
# Protocol: as §1, §2
# cyp2c11 [4] = target: T2, cyp2c11; experiment: Effect of poziotinib on cyp2c11 activity in rats (tolbutamide pharmacokinetics); assay type: in vivo, Sprague-Dawley rats; design: from tissue; host or cells: living male Sprague-Dawley rats (whole animal); conditions: poziotinib 5 mg/kg oral 7 days, tolbutamide probe
# Protocol: as §1, §2
# [5] = design: method as in He et al., 2019; Kim T. Y. et al., 2019; conditions: treatment, ref He et al., 2019, Kim T. Y. et al.; cited from earlier work
smiles,measurement,setting,value
C=CC(=O)N1CCC(Oc2cc3c(Nc4ccc(Cl)c(Cl)c4F)ncnc3cc2OC)CC1 [Poziotinib],effect on cyp1a2 activity in rats,cyp1a2,induces cyp1a2 activity
same,effect on cyp2b1 activity in rats,cyp2b1 [1],inhibitory effect
same,enzymes producing main metabolites M1 (dihydroxylation) and M2 (demethylation),CYP3A4 and CYP2D6,mainly produced by CYP3A4 and CYP2D6 activity
same,time- and concentration-dependent inhibition of cyp2b1,"cyp2b1 [2]; pre-incubation 0, 5, 10, 20 min, poziotinib 2-16 μM",no time- or concentration-dependent inhibitory effects
same,reversibility of inhibition of cyp2b1,"cyp2b1 [2]; pre-incubation 0, 5, 10, 20 min with NADPH",reversible
same,inhibitory effect on cyp2c11 (in words),cyp2c11 [3],strong
same,pIC50,"cyp2c11 [3]; 100 μM tolbutamide, cocktail, 30 min, read-out: IC50",4.70
same,pIC50,"cyp2c11 [3]; classes after Jin et al., 2015, read-out: inhibition class by IC50, CYP2C11",< 5.00
same,effect on cyp2d1 activity in rats,cyp2d1,no obvious inhibitory effect
same,effect on cyp2c11 activity in rats,cyp2c11 [4],significantly inhibitory effect
same,common adverse reactions,[5],"rash, diarrhea, and itching"
